The results in this text go back to PubChem BioAssay AID250 (DTP/NCI, 2004).

Values joined by “and” are separate entries in the source; they are usually repeats but may differ in a detail not shown here. Identical values can stand only once. Toxic doses and inconclusive results are not listed.

The subject of the assay is BDF1 mice, L1210 leukemia sc, survival T/C. Briefly: NCI In Vivo Anticancer Drug Screen. Data for tumor model L1210 Leukemia (subcutaneous) in B6D2F1 (BDF1) mice. As to conditions: endpoint: median survival time, higher = longer survival. In a few lines: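 Tumors were transplanted into mice, the animals were treated with compound, survival or tumor size was then measured, and treated values were divided by vehicle-control values.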

[1] abbreviates: dose: 39.0 mg/kg/injection, schedule: Q01DX Z (sc), vehicle: saline.
The mark [2] stands for this setting: dose: 65.0 mg/kg/injection, schedule: Q01DX Z (sc), vehicle: saline.
The mark [3] stands for this setting: dose: 108.0 mg/kg/injection, schedule: Q01DX Z (sc), vehicle: saline.
The mark [4] stands for this setting: dose: 108.0 mg/kg/injection, schedule: Q01DX Z (sc), vehicle: methylcellulose (MC).
[5] abbreviates: dose: 180.0 mg/kg/injection, schedule: Q01DX Z (sc), vehicle: methylcellulose (MC).
Where [6] appears, read: dose: 300.0 mg/kg/injection, schedule: Q01DX Z (sc), vehicle: methylcellulose (MC).

With `O=c1[nH]c(=O)n(C2OC(CO)C(O)C2O)cc1Br` (configuration not stated), the T/C is, setting by setting: under setting [1], 100 % of control; under setting [2], 100 % of control; under setting [3], 100 % of control; (dose: 180.0 mg/kg/injection, schedule: Q01DX Z (sc), vehicle: saline) 94 % of control and 100 % of control; (dose: 300.0 mg/kg/injection, schedule: Q01DX Z (sc), vehicle: saline) 100 % of control and 105 % of control; (dose: 500.0 mg/kg/injection, schedule: Q01DX Z (sc), vehicle: saline) 94 % of control and 100 % of control. Further, the T/C is, setting by setting: (dose: 833.0 mg/kg/injection, schedule: Q01DX Z (sc), vehicle: saline) 105 % of control; (dose: 1388.0 mg/kg/injection, schedule: Q01DX Z (sc), vehicle: saline) 94 % of control.
With `OCC1OC(n2cnc3c(Cl)ncnc32)C(O)C1O` (configuration not stated), the T/C runs as follows: (dose: 39.0 mg/kg/injection, schedule: Q01DX Z (sc), vehicle: methylcellulose (MC)) 100 % of control; (dose: 65.0 mg/kg/injection, schedule: Q01DX Z (sc), vehicle: methylcellulose (MC)) 100 % of control; under setting [4], 100 % of control; under setting [5], 100 % of control; under setting [6], 95 % of control and 100 % of control; (dose: 500.0 mg/kg/injection, schedule: Q01DX Z (sc), vehicle: methylcellulose (MC)) 94 % of control and 105 % of control. Under “dose: 833.0 mg/kg/injection, schedule: Q01DX Z (sc), vehicle: methylcellulose (MC)”, the T/C is 105 % of control.
In the case of `COC(=N)N`, the T/C (dose: 1.8 mg/kg/injection, schedule: Q01DX Z (sc), vehicle: methylcellulose (MC)) was 100 % of control and the T/C (dose: 3.0 mg/kg/injection, schedule: Q01DX Z (sc), vehicle: methylcellulose (MC)) is 100 % of control.
As for `COC(=O)c1[nH]cnc1/N=N/N(C)C`, the T/C reads like this: (dose: 14.0 mg/kg/injection, schedule: Q01DX Z (sc), vehicle: saline) 109 % of control; (dose: 23.0 mg/kg/injection, schedule: Q01DX Z (sc), vehicle: saline) 100 % of control; under setting [1], 109 % of control; under setting [2], 104 % of control; under setting [3], 159 % of control.
Regarding `CC[n+]1ccc(Nc2ccc(NC(=O)c3ccc(Nc4cc[n+](CC)c5ccc(N)cc45)cc3)cc2)cc1`, the T/C was 100 % of control (dose: 0.5 mg/kg/injection, schedule: Q01DX009 (sc), vehicle: water); 122 % of control (dose: 0.5 mg/kg/injection, schedule: Q03HX024 (ip), vehicle: water); 172 % of control (dose: 1.0 mg/kg/injection, schedule: Q01DX009 (ip), vehicle: water); 105 % of control (dose: 1.0 mg/kg/injection, schedule: Q01DX009 (sc), vehicle: water); 177 % of control (dose: 1.0 mg/kg/injection, schedule: Q03HX024 (ip), vehicle: water); 115 % of control (dose: 1.0 mg/kg/injection, schedule: Q03HX024 (sc), vehicle: water). Also, the T/C runs as follows: (dose: 2.0 mg/kg/injection, schedule: Q01DX009 (ip), vehicle: water) 172 % of control; (dose: 2.0 mg/kg/injection, schedule: Q03HX008 (sc), vehicle: water) 120 % of control; (dose: 2.0 mg/kg/injection, schedule: Q03HX024 (ip), vehicle: water) 200 % of control; (dose: 2.0 mg/kg/injection, schedule: Q03HX024 (sc), vehicle: water) 160 % of control; (dose: 2.0 mg/kg/injection, schedule: Q04DX003 (sc), vehicle: water) 100 % of control; (dose: 4.0 mg/kg/injection, schedule: Q01DX001 (sc), vehicle: water) 110 % of control. For the same molecule, the T/C was 122 % of control (dose: 4.0 mg/kg/injection, schedule: Q01DX009 (ip), vehicle: water); 210 % of control (dose: 4.0 mg/kg/injection, schedule: Q01DX009 (sc), vehicle: water); 190 % of control (dose: 4.0 mg/kg/injection, schedule: Q03HX024 (sc), vehicle: water); 115 % of control (dose: 4.0 mg/kg/injection, schedule: Q04DX003 (sc), vehicle: water); 110 % of control (dose: 8.0 mg/kg/injection, schedule: Q01DX001 (sc), vehicle: water); 111 % of control (dose: 8.0 mg/kg/injection, schedule: Q01DX009 (ip), vehicle: water). For the same molecule, the T/C (dose: 8.0 mg/kg/injection, schedule: Q01DX009 (sc), vehicle: water) was 170 % of control; the T/C (dose: 8.0 mg/kg/injection, schedule: Q03HX008 (sc), vehicle: water) is 185 % of control; the T/C (dose: 8.0 mg/kg/injection, schedule: Q03HX024 (ip), vehicle: water) is 111 % of control; the T/C (dose: 16.0 mg/kg/injection, schedule: Q04DX003 (sc), vehicle: water) is 165 % of control.
Consider `S=c1nc[nH]c2c1ncn2C1C=CCCC1` (configuration not stated), for which the T/C (dose: 14.0 mg/kg/injection, schedule: Q01DX Z (sc), vehicle: methylcellulose (MC)) was 100 % of control; the T/C (dose: 23.4 mg/kg/injection, schedule: Q01DX Z (sc), vehicle: methylcellulose (MC)) is 100 % of control; the T/C under setting [4] is 100 % of control.
On to `OCC1OC(n2cnc3c(=S)nc[nH]c32)C(O)C1O` (configuration not stated), for which the T/C (dose: 38.9 mg/kg/injection, schedule: Q01DX Z (sc), vehicle: methylcellulose (MC)) is 110 % of control; the T/C (dose: 50.0 mg/kg/injection, schedule: Q03HX024 (ip), vehicle: other) is 150 % of control; the T/C (dose: 64.8 mg/kg/injection, schedule: Q01DX Z (sc), vehicle: methylcellulose (MC)) was 155 % of control; the T/C (dose: 100.0 mg/kg/injection, schedule: Q03HX024 (ip), vehicle: other) is 155 % of control; the T/C (dose: 100.0 mg/kg/injection, schedule: Q03HX024 (sc), vehicle: other) was 155 % of control; the T/C under setting [4] is 160 % of control. Besides, the T/C under setting [5] is 150 % of control; the T/C (dose: 200.0 mg/kg/injection, schedule: Q03HX024 (ip), vehicle: other) is 161 % of control; the T/C (dose: 200.0 mg/kg/injection, schedule: Q03HX024 (sc), vehicle: other) was 155 % of control; the T/C under setting [6] was 150 % of control; the T/C (dose: 400.0 mg/kg/injection, schedule: Q01DX009 (ip), vehicle: other) is 155 % of control; the T/C (dose: 400.0 mg/kg/injection, schedule: Q01DX009 (sc), vehicle: other) is 150 % of control. The T/C is 155 % of control (dose: 400.0 mg/kg/injection, schedule: Q03HX024 (ip), vehicle: other); 105 % of control (dose: 400.0 mg/kg/injection, schedule: Q03HX024 (sc), vehicle: other); 155 % of control (dose: 800.0 mg/kg/injection, schedule: Q01DX009 (ip), vehicle: other); 161 % of control (dose: 800.0 mg/kg/injection, schedule: Q01DX009 (sc), vehicle: other); 122 % of control (dose: 1600.0 mg/kg/injection, schedule: Q01DX009 (ip), vehicle: other); 155 % of control (dose: 1600.0 mg/kg/injection, schedule: Q01DX009 (sc), vehicle: other). Besides, the T/C runs as follows: (dose: 3200.0 mg/kg/injection, schedule: Q01DX009 (sc), vehicle: other) 111 % of control; (dose: 3200.0 mg/kg/injection, schedule: Q04DX003 (sc), vehicle: other) 150 % of control.
For `CCCCCCCCCCCCCCCCNC(=S)N/N=C/c1ccccc1OC`, the T/C (dose: 78.0 mg/kg/injection, schedule: Q01DX Z (sc), vehicle: water) is 100 % of control; the T/C (dose: 130.0 mg/kg/injection, schedule: Q01DX Z (sc), vehicle: water) is 105 % of control; the T/C (dose: 216.0 mg/kg/injection, schedule: Q01DX Z (sc), vehicle: water) was 111 % of control; the T/C (dose: 360.0 mg/kg/injection, schedule: Q01DX Z (sc), vehicle: water) is 105 % of control; the T/C (dose: 600.0 mg/kg/injection, schedule: Q01DX Z (sc), vehicle: water) was 100 % of control.
